Test results taken from patent publication US11166972B2, “Compositions comprising nicotinamide riboside and a urolithin” (Amazentis SA, priority 2015, dated 2021).

Tested on: mitochondrial respiratory subunits proteins in C2C12 myoblasts
Experiment: Western blot of mitochondrial respiratory subunits proteins in C2C12 myoblasts (Example 6)
Type: cell-based
Conditions: 48 hours
Method: C2C12 myoblasts were cultured in Dulbecco's modified Eagle's medium (DMEM) including 4.5 g/L glucose, 10% fetal calf serum, and 50 μg/mL gentamicin. Urolithin A (UA) was dissolved in DMSO in a stock solution of 50 mM. Nicotinamide riboside (NR) in the form of the triflate salt was dissolved in double-distilled water in a stock solution of 1 M. One hundred thousand cells were plated at time 0 hours in 6-wells plates. A total of 3 wells was used per condition (n=3 per group). Cells were treated in a volume of 2 ml for a period of 48 hours at final concentrations of (a) DMSO 0.1%, (b) 25 μM UA, (c) 0.1 mM NR, (d) 1 mM NR, (e) 25 μM UA+0.1 mM NR and (f) 25 μM UA+1 mM NR. At the end of the treatment, cells were lysed with cell lysis buffer (#9803, Cell signalling) containing protease (cOmplete™, Roche) and phosphatase inhibitor (PhosSTOP™, Roche) and applied to Invitrogen NuPage® Novex® Gel System (Bis-Tris Protein Gels −4-12%, Thermo fisher Scientific). Protein levels were examined for mitochondrial respiratory subunits, including mitochondrially encoded cytochrome c oxidase I (MTCO1), succinate dehydrogenase complex flavoprotein subunit A (SDHA) and B (SDHB), ubiquinol-cytochrome c reductase core protein II (UQCRC2) and ATP synthase, H+ transporting, mitochondrial F1 complex, alpha subunit 1 (ATP5A). The housekeeping protein tubulin-α was measured as a loading control. Detection of the proteins was performed using an Azure c300 (Azure biosystem) (FIG. 1B). Western Blot images were representative of the three biological replicates. Experiments were repeated at least 2 times. Bands were quantified using ImageJ software. The heatmap of the band intensities was drawn using GEN-E (Broad Institute) conditional formatting. Control DMSO values were set to one (FIG. 1A).

Molecule	ATP5A protein level, change vs DMSO control (UA 25 μM alone)	MT-CO1 protein level, change vs DMSO control (UA 25 μM alone, increase)	SDHA protein level, change vs DMSO control (UA 25 μM alone, increase)	SDHB protein level, change vs DMSO control (UA 25 μM alone, increase)	UQCRC2 protein level, change vs DMSO control (UA 25 μM alone, increase)	ATP5A protein level, change vs DMSO control (NR 0.1 mM)	SDHB protein level, change vs DMSO control (NR 0.1 mM)	MT-CO1 protein level, change vs DMSO control (NR 0.1 mM, decrease (printed −≈10%))	SDHA protein level, change vs DMSO control (NR 0.1 mM, increase)	UQCRC2 protein level, change vs DMSO control (NR 0.1 mM, increase (+≈))	SDHB protein level, change vs DMSO control (NR 1 mM)	ATP5A protein level, decrease vs DMSO control (NR 1 mM, decrease)	MT-CO1 protein level, change vs DMSO control (NR 1 mM, decrease (printed −≈10%))	SDHA protein level, change vs DMSO control (NR 1 mM, increase)	UQCRC2 protein level, change vs DMSO control (NR 1 mM, increase (+≈))
O=c1oc2cc(O)ccc2c2ccc(O)cc12 [UA, Urolithin A]	no change	+14%	+54%	+10%	+26%										
Nicotinamide riboside [NR]						no effect	no change	≈ 10%	≈ 100%	≈ 10%	no change	20%	≈ 10%	≈ 100%	≈ 10%
